Values of other authors, collected in US20210100738A1, “OXYGEN DELIVERY BEVERAGE” (RESPIROGEN, INC., priority 2018, published 2021).

Conditions: oral co-administration of lipids, in mammals

SMILES	increase in bioavailability
C=C(C)[C@@H]1CCC(C)=C[C@H]1c1c(O)cc(CCCCC)cc1O [CBD, cannabidiol]	~3 fold
CCCCCc1cc(O)c2c(c1)OC(C)(C)[C@@H]1CCC(C)=C[C@@H]21 [THC, Δ^9-tetrahydrocannabinol]	more than 2.5 fold
